Results on one substance are retold here after patent US20100254940A1, “Compositions and Methods for Regulating an Immune Response in a Subject” (INNATE PHARMA, S.A., priority 2002, published 2010).

One series deals with γδ T cell. Kind of series: γδ T cell amplification from human PBMCs, counting γδ T cell using flow cytometry (given as in vivo EC50). Type of series: cell-based. To be noted: γδ T cell amplification from human PBMCs, flow cytometry count. Here is the method: The biological activity of γδ T cell amplification from human PBMCs was assessed by counting γδ T cell using flow cytometry.
In vitro proliferation assays and in vitro TNFα release assay are performed essentially as described in Example 3.
In general terms: Flow cytometry measures light scatter and fluorescence of single cells or particles in a stream.

Another series concerns TNFα. The experiment in a line: Serum TNFα by ELISA after BrHPP injection in cynomolgus monkeys. Type of series: in vivo, cynomolgus monkeys (M. fascicularis). The procedure:
Serum cytokines (TNFα and INFg) were detected and quantified with the BIOSOURCE Cytoscreen™ ELISA monkey TNFa and Cytoscreen™ ELISA monkey INFg respectively (purchased from CliniSciences, Montrouge, France) according to the manufacturer's instructions.
Samples of sera were collected from group 2 animals during the first dose range assay (0 to 80 mg/kg) just before injection then 1 and 4 hours post injection, and assayed by ELISA specific for TNFa and IFNg.
The objective of this GLP study was to explore further the pharmaco-dynamic properties of Phosphostim (BrHPP, 200 mg; GMP batch) alone and in combination with IL-2 following several i.v. administrations to cynomolgus monkeys. In particular, this study was planned to evaluate: • A dose-effect relationship between Phosphostim injection and γδ T cell peripheral amplification; • The pharmaco-dynamic effect of a second, third and up to fifth administration of Phosphostim in male and female animals; • The functionality of in vivo induced γδ T cells, by dosing systemic cytokines after Phosphostim treatment; • The effect of treatment with IL-2 alone and to validate the selected dose of 0.6 million IU/day/animal.
Phosphostim was administered i.v., as slow infusions (50 ml in 30 minutes), at various dose levels to five groups of two animals (one male+one female). Males received two successive injections of BrHPP (Day 0 and Day 22) before sacrifice and females four injections (Days 0, 22, 52 and 84). Two females, selected upon their level of response to the 4th treatment, received a supplementary injection of BrHPP alone at Day 91, during γδ cell peripheral increase, for systemic cytokine dosages.

Series [1] is described as follows: Vital parameters, haematology and serum clinical chemistry follow up in cynomolgus monkeys (non-GLP studies). Type of series: in vivo, cynomolgus monkeys (M. fascicularis). Here is the method:
Classical blood parameters follow-up (red blood cell, platelets total and differential white blood cells counts, haemoglobin, mean corpuscular haemoglobin, mean corpuscular haemoglobin concentration) were performed at the sites of monkey handling, just before and after each administration and twice weekly.
On all animals in group 2, 48 or 72 hours after each injection, 16 blood chemistry parameters were measured (sodium, potassium, chloride, calcium, inorganic phosphorus, glucose, urea, total cholesterol, total bilirubin, total protein, albumin, globulin, creatinin, alkaline phosphatase, aspartate aminotransferase and […] aminotransferase).
The animals were observed daily and during and after each injection for any change in vital and clinical parameters (general behaviour, skin, hair, respiratory system, central nervous system). Animals were regularly weighed, every 3 days (group 1) or weekly (group 2). Body temperature (on vigil animals of group 2) was measured before and at the end of each BrHPP/IL2 (or IL2 alone) infusion and once daily during the 5 days following administration. Heart rate and blood pressure were recorded for all animals in group 2, before and at the end of each administration.

Another series deals with 786-0 cells lines. The experiment in a line: Nod-SCID/tumor model, human PBMC stimulated in vivo with BrHPP. Further details: species or system Nod-SCID mice. Here is the method: Preliminary studies to set up the Nod-SCID/tumor and to stimulate human MNC with BrHPP in the Nod-SCID were carried out as follows: • The following renal tumor cells lines purchased from the ATCC (786-0, Kaci1, G401 and G402) were used for the establishment of the model. 786-0 and Kaci-1 cells lines were renal clear cell carcinoma (RCC), G401 rhabdoid and G402 leimyeloblastoma.
8-12 weeks Nod-SCID mice were used as recipient of the cells lines.
Each mouse received, at the left flank's upper part, 2-5×10^6 cells by subcutaneous injection at day D0. The appearance and the growing of the tumors evolution were checked weekly.
The tumors appearance and development depend on the cell line and on the number of engrafted cells. For example, after the engraftment of 2×10^6 cells, 3 to 4 weeks were needed for the 786-O and Kac1-1, while 2 weeks were needed for the G401 and 402. • At day 0, mice were injected IP 50*10^6 PBMC (collected from healthy donor, etablissement français du sang), then stimulated (IP) 40 mg/kg BrHPP mixed with 1000 IU of IL2. At D5 and each every three days, mice were treated with 500 UI of IL2. Human γδ T cells were developed in the peritoneal cavity of Nod-SCID/human (hu) BrHPP treated mice.
Taking advantage of the tumoral development in the Nod-SCID mice and the in vivo stimulation of the human γδ T cells, the anti-tumoral effect of the γδ T cells was studied in vivo. The tumoral model was established by engrafting 2×10^6 of 786-0 cells lines, three weeks later, when the volume of the solid tumor reached more than >30 mm3 (calculated with the formula A^2×B/2 where A and B represent respectively the length and breadth of the tumor). Mice, randomized, received IP PBMC and treated for the stimulation with BrHPP. Several groups were constituted:
A—Negative control group: Mice in the group received only tumoral cell line
B—PBMC group: Mice were injected IP with 50×10^6 PBMC
C—Study group: Mice after receiving the 50×10^6 PBMC were treated with BrHPP and
For each group, parameters were observed as follows: • Weekly check of the tumor size and volume • Weekly phenotype of human T cells in the peritoneal cavity and blood collected cells for the percentage of human γδ T cells versus ab human T cells. • Serological TNF and INF check • At sacrifice: • 1—phenotype study of the homing of human leukocytes cells and their phenotype (IP, liver, lung, spleen, bone morrow, blood, thymus and tumor). • 2—Immunohistochemistry (IHC) study in the tumor of the recipient mice.

The EC50 is the concentration at which the effect is half-maximal. The low end stands for greater potency, the high end for weaker potency. In the series on γδ T cell, “3-(bromomethyl)-3-butanol-1-yl-diphosphate [BrHPP]” returned an EC50 of around 1 nM. Also, the “serum level of TNFa” value in the series on TNFα (80 mg/kg, 4 hours post BrHPP injection) is given as “not further detectable”. In the series with TNFα (80 mg/kg, one hour after injection), the “TNFα in the sera” value was “detectable”. For the same substance, the TNFa level result in the series with TNFα (fifth injection 80 mg/kg without IL2, 4 hours post injection) is recorded as “undetectable at 4 hours post injection”. In the series with TNFα (fifth injection 80 mg/kg without IL2 at peak after fourth injection), the “TNFa in the sera” value is given as “detectable”. Moreover, the “clinical or blood chemical parameters” value in series [1] (BrHPP alone or in association with IL2) was “No alteration of clinical or blood chemical parameters”. Besides, in series [1] (any animal treated), the rectal temperature result is on record as “not significantly affected”. For the same substance, the “toxicity as assessed by vital signs or rectal temperature” value in series [1] (five daily injection of 0.2 mg/kg BrHPP alone) is listed as “did not result in any toxicity”. Besides, the “toxicity, fever” value in series [1] (four daily injections 1, 4, 16, 32 mg/kg BrHPP alone) is reported as “no toxicity nor fever was observed”. In series [1] (highest dose of BrHPP, at peak of Vg9Vd2 in the periphery), the lymphocytes entry is “a lymphocytosis was observed”. The “mice in which the tumor was not totally cleared” value with 786-0 cells lines (PBMC + BrHPP + IL2) is 4 of 10. Further, the tumor size result in the series with 786-0 cells lines (PBMC/BrHPP (40 mg/kg IP) and IL2 treated group) is reported as “from day 7 onwards the tumor size shrank”. The “tumor growth where tumor not totally cleared” value in the series on 786-0 cells lines (after 12 weeks) is “tumor growth was stopped and the tumor size stayed stable”. In addition, the “human γδ cells in the tumor” value in the series with 786-0 cells lines (at sacrifice, 4 weeks) is “human γδ cells were present only in the BrHPP treated group”. Also, in the series on 786-0 cells lines (mice where the tumor was cleared, 12 weeks after the treatment), the reappearance of tumor result is “no reappearance of new tumor was observed”. Further, in the series on 786-0 cells lines (weekly IP phenotype), the “human γδ T cell presence in the peritoneal cavity” value is listed as “human γδ T cell presence only in the BrHPP treated mice”.
